Data set [1] has as its target T1, Pig porcine α-amylase (PPA) (Sus scrofa, UniProt P00690).
T1 construct: gene AMY2; commercial native enzyme (Sigma-Aldrich A4268)
T1 sequence (P00690 16-511): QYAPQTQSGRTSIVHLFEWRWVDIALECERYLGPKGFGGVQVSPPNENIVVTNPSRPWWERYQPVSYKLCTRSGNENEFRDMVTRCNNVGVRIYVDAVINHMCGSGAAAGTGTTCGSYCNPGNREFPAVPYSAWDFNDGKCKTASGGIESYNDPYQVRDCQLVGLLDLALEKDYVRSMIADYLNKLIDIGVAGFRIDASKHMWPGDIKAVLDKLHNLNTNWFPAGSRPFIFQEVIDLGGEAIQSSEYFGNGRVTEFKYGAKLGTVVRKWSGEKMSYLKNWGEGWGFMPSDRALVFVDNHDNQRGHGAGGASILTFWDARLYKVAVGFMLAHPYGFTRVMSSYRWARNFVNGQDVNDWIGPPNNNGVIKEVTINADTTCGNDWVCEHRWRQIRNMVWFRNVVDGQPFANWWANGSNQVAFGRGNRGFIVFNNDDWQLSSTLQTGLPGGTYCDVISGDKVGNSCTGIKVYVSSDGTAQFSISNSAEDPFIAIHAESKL
Nature of the data set: colourimetric, […] nm, temperature gradient (ThermoSlope). The data set is classed as biochemical. As to conditions: phosphate buffered saline; 0.45 nM enzyme; 283-363 K, 1 K/min.

Data set [2] deals with T2, Pseudoalteromonas haloplanktis α-amylase (AHA) (Pseudoalteromonas haloplanktis, UniProt P29957).
T2 construct: gene amy; recombinant, E. coli, same protocol as pLipA (IMAC, then HiTrap SP)
T2 sequence (P29957 25-477): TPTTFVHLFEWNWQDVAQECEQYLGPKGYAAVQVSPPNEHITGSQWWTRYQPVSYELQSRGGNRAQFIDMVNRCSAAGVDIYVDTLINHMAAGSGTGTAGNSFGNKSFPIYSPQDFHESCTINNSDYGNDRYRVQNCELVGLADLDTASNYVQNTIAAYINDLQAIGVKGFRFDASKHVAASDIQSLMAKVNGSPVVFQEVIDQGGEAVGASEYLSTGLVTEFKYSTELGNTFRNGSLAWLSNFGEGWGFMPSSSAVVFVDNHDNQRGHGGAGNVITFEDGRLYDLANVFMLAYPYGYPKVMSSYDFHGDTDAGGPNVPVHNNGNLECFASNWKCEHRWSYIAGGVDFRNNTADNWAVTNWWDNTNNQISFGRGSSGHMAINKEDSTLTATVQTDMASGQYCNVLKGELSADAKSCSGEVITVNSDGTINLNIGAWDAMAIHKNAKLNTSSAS
Described as above. The class given is biochemical. Conditions: phosphate buffered saline; 60 nM enzyme; 283-306 K, 1 K/min.

The target of data set [3] is T3, Bacillus licheniformis α-amylase (BLA) (Bacillus licheniformis, UniProt P06278).
T3 construct: gene amyS; commercial enzyme (Sigma-Aldrich A3403)
T3 sequence (P06278 30-512): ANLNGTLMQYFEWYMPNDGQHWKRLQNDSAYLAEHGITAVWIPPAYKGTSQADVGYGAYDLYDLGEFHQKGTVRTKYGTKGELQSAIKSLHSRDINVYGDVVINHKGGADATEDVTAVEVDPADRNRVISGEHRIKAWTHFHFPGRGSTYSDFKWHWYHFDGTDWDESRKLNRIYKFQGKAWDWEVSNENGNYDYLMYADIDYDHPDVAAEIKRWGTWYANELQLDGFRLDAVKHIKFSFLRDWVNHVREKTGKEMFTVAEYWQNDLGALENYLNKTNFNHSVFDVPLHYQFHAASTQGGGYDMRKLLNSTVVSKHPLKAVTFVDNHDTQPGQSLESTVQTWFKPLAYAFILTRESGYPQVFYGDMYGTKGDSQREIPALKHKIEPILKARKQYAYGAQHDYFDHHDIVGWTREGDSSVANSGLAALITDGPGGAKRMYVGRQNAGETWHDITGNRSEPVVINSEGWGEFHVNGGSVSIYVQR
The data set is described as above. The class given is biochemical. Conditions: phosphate buffered saline; 3.8 µM enzyme; 303-363 K, 2 K/min.

Substrate in the data set “purified protein”: CCCC(=O)Oc1ccc([N+](=O)[O-])cc1
Description: purified protein. The data set is classed as biochemical, Bacillus pumilus. As to conditions: 298 K, 50 mM potassium phosphate pH 7.2, 5% acetonitrile, 1 nM enzyme, stepwise approach, 25.0 °C.

In the case of `O=[N+]([O-])c1ccc(O[C@H]2O[C@H](CO)[C@@H](O[C@H]3O[C@H](CO)[C@@H](O[C@H]4O[C@H](CO)[C@@H](O)[C@H](O)[C@H]4O)[C@H](O)[C@H]3O)[C@H](O)[C@H]2O)c(Cl)c1` [2-Chloro-4-nitrophenyl-α-D-maltotrioside], the “colourimetric, 405 nm, temperature gradient (ThermoSlope)” value in data set [1], in data set [2] and in data set [3] was “α-amylases were completed in a similar fashion using the ThermoSlope-approach with the chromogenic substrate” throughout.

B1: pLipA (Bacillus pumilus LipA; Lipase L5) (Bacillus pumilus) (protein)
chain: AEHNPVVMVHGMGGASYNFASIKSYLVTQGWDRNQLFAIDFIDKTGNNRNNGPRLSRFVKDVLGKTGAKKVDIVAHSMGGANTLYYIKNLDGGDKIENVVTLGGANGLVSLRALPGTDPNQKILYTSVYSSADMIVVNSLSRLIGARNVLIHGVGHISLLASSQVKGYIKEGLNGGGQNTN
notes: residues 35-215, codon-optimised synthetic gene in pET-22b(+) NdeI/XhoI, His-tag purified (tag removal not mentioned), E. coli NiCo21(DE3)
Broadly, the Km is the concentration of substrate that gives half-maximal velocity. The kcat is the number of substrate molecules converted per active site and unit of time at saturation. For the molecule B1, in the data set “purified protein”, the Km was found to be 500 ± 100 µM and the kcat is 310 ± 20 s⁻¹.

Values taken from article PMC8658824, “ThermoSlope: A Software for Determining Thermodynamic Parameters from Single Steady-State Experiments” (Molecules, 2021).
